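Compound exposure: 48 hours, 5 concentrations, 96-well plates. GI50 is the concentration that inhibits growth by half.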 Activity calls are given as the source filed them. Cut-off read from the data, not from the text of the source: active = GI50 up to about 1.1 µM and inactive = higher.
Experiments:
Assay in all cases: NCI-60 cell line screen, 48 h
[1] = system: CCRF-CEM
[2] = system: COLO 205
[3] = system: HCT-116
[4] = system: HOP-62
[5] = system: LOX IMVI
[6] = system: Malme-3M
[7] = system: NCI-H226
[8] = system: NCI-H460
[9] = system: NCI-H522
[10] = system: OVCAR-5
[11] = system: OVCAR-8
[12] = system: SF-539
[13] = system: SK-MEL-2
[14] = system: SK-MEL-5
[15] = system: SK-OV-3
[16] = system: SN12C
[17] = system: U-251
[18] = system: UACC-257
[19] = system: UO-31
[20] = system: RXF 393

Measured: GI50

O=C(Nc1ccc([N+](=O)[O-])cc1)Nn1cnnc1
inactive: [1] > 100 µM | [2] > 100 µM | [3] 74.5 µM | [4] 66.2 µM | [5] 96.8 µM | [6] 15.9 µM | [8] 37.6 µM | [9] 49.8 µM | [10] > 100 µM | [11] 27.3 µM | [12] 25.7 µM | [13] > 100 µM | [14] > 100 µM | [15] > 100 µM | [16] > 10 µM | [17] 27.5 µM | [18] 94 µM | [19] 53.1 µM
active: [7] < 0.01 µM

O=c1[nH]c(=O)n(CCOCP(=O)(O)O)nc1Br
inactive: [1] > 100 µM | [2] > 100 µM | [4] > 100 µM | [5] > 100 µM | [6] > 100 µM | [7] > 100 µM | [8] > 100 µM | [9] > 100 µM | [10] > 100 µM | [11] > 100 µM | [20] > 100 µM | [12] > 100 µM | [13] > 100 µM | [14] > 100 µM | [16] > 100 µM | [17] > 100 µM | [19] > 100 µM

Nc1cc(-c2ccccc2)nn1-c1nsc2ccccc12
inactive: [1] 21.6 µM | [2] > 100 µM | [3] 73.3 µM | [4] 36.3 µM | [5] 97.5 µM | [8] 60.8 µM | [10] > 100 µM | [11] 92.9 µM | [20] 14.4 µM | [12] > 100 µM | [13] > 100 µM | [14] > 100 µM | [16] 99.8 µM | [17] 54.2 µM | [18] > 100 µM | [19] > 100 µM

COc1ccc(-c2cc(-c3ccccc3)n(C3OCC(OC(C)=O)C(OC(C)=O)C3OC(C)=O)c(=S)c2C#N)cc1 (stereo not drawn)
inactive: [1] > 100 µM | [2] > 100 µM | [3] 86.5 µM | [4] > 100 µM | [5] > 100 µM | [6] > 100 µM | [7] 20 µM | [8] 9.42 µM | [9] 66.5 µM | [10] 87.1 µM | [11] > 100 µM | [20] 37.5 µM | [12] > 100 µM | [13] 25 µM | [14] > 100 µM | [15] 66.1 µM | [16] > 100 µM | [17] > 100 µM | [18] > 100 µM | [19] 28.6 µM

Cc1c(N2C(=O)/C(=C/C=C/c3ccccc3)N=C2c2ccccc2)c(=O)n(-c2ccccc2)n1C
inactive: [1] 27.2 µM | [2] 15.5 µM | [3] 34.8 µM | [4] 26.5 µM | [5] 21.5 µM | [6] 28.8 µM | [7] 24.7 µM | [8] 29.4 µM | [9] 16 µM | [10] 24.8 µM | [11] 26.1 µM | [20] 17.9 µM | [12] 21.3 µM | [13] 21.8 µM | [14] 16.3 µM | [15] 23 µM | [16] 24.5 µM | [17] 16.8 µM | [18] 18.9 µM | [19] 18.4 µM

O=C(O)CCC(NC(=O)c1ccc(Nc2nc3cc(C(F)(F)F)ccc3nc2-c2ccccc2)cc1)C(=O)O (stereo not drawn)
inactive: [1] 97.3 µM | [2] > 55.7 µM | [3] 71 µM | [4] > 74.6 µM | [5] 44.9 µM | [6] > 100 µM | [7] > 100 µM | [8] 43.3 µM | [9] 35.6 µM | [10] 63.5 µM | [11] > 100 µM | [20] 26.5 µM | [12] > 84.7 µM | [13] > 100 µM | [14] > 100 µM | [15] > 100 µM | [16] > 100 µM | [17] 67.1 µM | [18] > 100 µM | [19] > 94.6 µM

CCOC(=O)c1c(C)c2c(n1C)CCc1c[nH]nc1-2
inactive: [1] > 100 µM | [2] > 100 µM | [3] > 100 µM | [4] > 100 µM | [5] > 100 µM | [6] > 100 µM | [7] > 100 µM | [8] > 100 µM | [9] > 100 µM | [10] 99.1 µM | [11] > 100 µM | [20] > 100 µM | [12] > 100 µM | [13] > 100 µM | [14] > 100 µM | [15] > 100 µM | [16] > 100 µM | [17] > 100 µM | [18] > 100 µM | [19] > 100 µM

COc1ccc(Oc2ccccc2N)cc1
inactive: [1] 10.7 µM | [2] 16.6 µM | [3] 17.2 µM | [4] 35.2 µM | [5] 81.1 µM | [6] > 100 µM | [7] 41.9 µM | [8] 30.6 µM | [10] 48.6 µM | [11] 56.2 µM | [20] 19.8 µM | [12] 20.2 µM | [13] 57 µM | [14] 13.2 µM | [15] > 100 µM | [16] 44.8 µM | [17] 12.4 µM | [18] 57.4 µM | [19] 26.5 µM

CCC(=C(C#N)C#N)c1cc(OC)c(OC)c(OC)c1
inactive: [1] > 100 µM | [2] > 100 µM | [3] > 100 µM | [4] > 100 µM | [5] > 100 µM | [6] > 100 µM | [7] > 100 µM | [8] > 100 µM | [9] > 100 µM | [10] > 100 µM | [11] > 100 µM | [20] > 100 µM | [12] > 100 µM | [13] > 100 µM | [14] > 100 µM | [15] > 100 µM | [16] > 100 µM | [17] > 100 µM | [19] > 100 µM

COc1cc2c(cc1OC)C(C(c1ccccc1)c1ccccc1)N(C)CC2 (stereo not drawn)
inactive: [1] 64.7 µM | [2] 16.1 µM | [3] > 58.6 µM | [4] > 100 µM | [5] > 81.1 µM | [6] 23.8 µM | [7] > 92.9 µM | [8] > 89.1 µM | [9] 74.1 µM | [10] > 100 µM | [11] > 100 µM | [20] 20 µM | [12] > 100 µM | [13] > 85.9 µM | [14] 21 µM | [15] 79.3 µM | [16] > 100 µM | [17] 61.9 µM | [18] 32.9 µM | [19] > 63.7 µM

Cc1ccc(OC(=O)N2C/C(=C\c3ccccc3)C(=O)/C(=C/c3ccccc3)C2)cc1
inactive: [1] 3.2 µM | [2] > 68.7 µM | [3] 2.13 µM | [4] 18.5 µM | [5] 3.29 µM | [6] > 76 µM | [7] 56.5 µM | [8] 53 µM | [9] 13 µM | [10] 76 µM | [11] 19.6 µM | [20] 20.1 µM | [12] 26.4 µM | [13] 42.6 µM | [14] 20.6 µM | [15] 41.3 µM | [16] 24.8 µM | [17] 9.25 µM | [18] 40.6 µM | [19] 36.9 µM

CC1(C)Cc2c(C#N)c(N)c3c(c2CO1)C(=O)OC3=O
inactive: [1] > 100 µM | [2] > 100 µM | [3] > 100 µM | [4] > 100 µM | [5] > 100 µM | [6] > 100 µM | [7] > 100 µM | [8] > 100 µM | [9] > 100 µM | [10] > 100 µM | [11] > 100 µM | [20] > 100 µM | [12] > 100 µM | [13] > 100 µM | [14] > 100 µM | [15] > 100 µM | [16] > 100 µM | [17] > 100 µM | [19] > 100 µM

O=c1c(C(c2ccc(C(c3c(O)oc4cc(O)ccc4c3=O)c3c(O)oc4cc(O)ccc4c3=O)cc2)c2c(O)oc3cc(O)ccc3c2=O)c(O)oc2cc(O)ccc12
inactive: [1] 53.2 µM | [2] 53.3 µM | [3] > 100 µM | [4] > 100 µM | [5] > 100 µM | [6] > 100 µM | [7] > 100 µM | [8] > 100 µM | [10] > 100 µM | [11] > 100 µM | [20] > 100 µM | [12] > 100 µM | [13] > 100 µM | [14] 48.6 µM | [15] > 100 µM | [16] 93.1 µM | [17] > 100 µM | [18] > 100 µM | [19] > 100 µM

O=C1C=C2SC3C[C@@]24CC1[N+]1=c2c4c(c(O)c4c2=C(C=N4)CC1)N3
inactive: [1] 2 µM | [2] 1.91 µM | [3] 1.81 µM | [4] 17.8 µM | [5] 2.51 µM | [6] 1.85 µM | [7] 2.29 µM | [8] 3.2 µM | [9] 1.58 µM | [10] 2.17 µM | [11] 2.03 µM | [20] 1.99 µM | [12] 1.9 µM | [13] 1.82 µM | [14] 1.88 µM | [15] 2.96 µM | [16] 2.67 µM | [17] 1.9 µM | [18] 1.7 µM | [19] 16.6 µM
